ChEMBL document CHEMBL3872207, “Aromatic heterocyclic esters of podophyllotoxin exert anti-MDR activity in human leukemia K562/ADR cells via ROS/MAPK signaling pathways” (Eur J Med Chem, 2016)

Legend:
[1] = Antiproliferative activity against human K562/ADR cells measured after 72 hrs by CCK8 assay; assay type: functional, cell-based
[2] = tested on: K562/Adr; experiment: Induction of intracellular ROS accumulation in human K562/ADR cells assessed as fluorescence intensity at 0.1 uM treated 2 hrs post ROS scavenger NAC addition measured after 24 hrs by DCFH-DA probe based flow cytometry relative to vehicle-treated control; assay type: functional
[3] = target: T1, c-Jun N-terminal kinase, JNK (Homo sapiens) (UniProt P45983+P53779+P45984); experiment: Induction of JNK phosphorylation in human K562/ADR cells assessed as ratio of phosphorylated JNK to beta-actin level at 0.1 uM pretreated with MAPK inhibitor SP600125 for 1 hr followed by compound addition after 48 hrs by Western blotting method (reference value: 0.46); assay type: cell-based
[4] = tested on: K562/Adr; experiment: Induction of ERK1/2 phosphorylation in human K562/ADR cells assessed as ratio of phosphorylated ERK1/2 to beta-actin level at 0.1 uM pretreated with MAPK inhibitor SB203580 for 1 hr followed by compound addition after 48 hrs by Western blotting method (reference value: 0.22); assay type: cell-based
[5] = target: T1, c-Jun N-terminal kinase, JNK (Homo sapiens); experiment: Induction of JNK phosphorylation in human K562/ADR cells assessed as ratio of phosphorylated JNK to beta-actin level at 0.1 uM pretreated with ROS scavenger NAC for 2 hrs followed by compound addition after 48 hrs by Western blotting method (reference value: 0.46); assay type: cell-based
[6] = Downregulation of CDK1 expression in human K562/ADR cells assessed as ratio of CDK1 to beta-actin level at 0.1 uM pretreated with MAPK inhibitor SB203580 for 1 hr followed by compound addition measured after 48 hrs by Western blot analysis (reference value: 0.53); assay type: functional, cell-based
[7] = Downregulation of CDK2 expression in human K562/ADR cells assessed as ratio of CDK2 to beta-actin level at 0.1 uM pretreated with MAPK inhibitor U0126 for 1 hr followed by compound addition measured after 48 hrs by Western blot analysis (reference value: 0.65); assay type: functional, cell-based
[8] = Downregulation of CyclinB1 expression in human K562/ADR cells assessed as ratio of CyclinB1 to beta-actin level at 0.1 uM measured after 48 hrs by Western blot analysis (reference value: 0.77); assay type: functional, cell-based
[9] = Downregulation of CyclinB1 expression in human K562/ADR cells assessed as ratio of CyclinB1 to beta-actin level at 0.1 uM pretreated with MAPK inhibitor SB203580 for 1 hr followed by compound addition measured after 48 hrs by Western blot analysis (reference value: 0.77); assay type: functional, cell-based
[10] = tested on: K562/Adr; experiment: Induction of apoptosis in human K562/ADR cells assessed as early apoptotic cells at 0.1 uM after 48 hrs by Annexin V-APC/7-AAD staining based flow cytometry (reference value: 2.74%); assay type: functional
[11] = tested on: K562/Adr; experiment: Induction of apoptosis in human K562/ADR cells assessed as necrotic cells at 0.1 uM pretreated with ROS scavenger NAC for 2 hrs followed by compound addition after 48 hrs by Annexin V-APC/7-AAD staining based flow cytometry (reference value: 0.26%); assay type: functional
[12] = tested on: K562/Adr; experiment: Induction of apoptosis in human K562/ADR cells assessed as viable cells at 0.1 uM pretreated with MAPK inhibitor U0126 for 1 hr followed by compound addition after 48 hrs by Annexin V-APC/7-AAD staining based flow cytometry (reference value: 95.31%); assay type: functional; conditions: read-out: Activity
[13] = tested on: K562/Adr; experiment: Induction of apoptosis in human K562/ADR cells assessed as necrotic cells at 0.1 uM pretreated with MAPK inhibitor U0126 for 1 hr followed by compound addition after 48 hrs by Annexin V-APC/7-AAD staining based flow cytometry (reference value: 0.26%); assay type: functional; set-up: scale not given: the % may be the effect or the level left
[14] = tested on: K562/Adr; experiment: Induction of apoptosis in human K562/ADR cells assessed as viable cells at 0.1 uM pretreated with MAPK inhibitor SP600125 for 1 hr followed by compound addition after 48 hrs by Annexin V-APC/7-AAD staining based flow cytometry (reference value: 95.31%); assay type: functional; conditions: read-out: Activity
[15] = tested on: K562/Adr; experiment: Induction of apoptosis in human K562/ADR cells assessed as viable cells at 0.1 uM pretreated with MAPK inhibitor SB203580 for 1 hr followed by compound addition after 48 hrs by Annexin V-APC/7-AAD staining based flow cytometry (reference value: 95.31%); assay type: functional; conditions: read-out: Activity
[16] = tested on: K562/Adr; experiment: Induction of apoptosis in human K562/ADR cells assessed as early apoptotic cells at 0.1 uM pretreated with MAPK inhibitor SB203580 for 1 hr followed by compound addition after 48 hrs by Annexin V-APC/7-AAD staining based flow cytometry (reference value: 2.74%); assay type: functional; set-up: scale not given: the % may be the effect or the level left
[17] = tested on: K562/Adr; experiment: Induction of apoptosis in human K562/ADR cells assessed as ratio of cleaved caspase-3 to beta-actin level at 0.1 uM measured after 48 hrs by Western blot analysis (reference value: 0.06); assay type: functional
[18] = tested on: K562/Adr; experiment: Induction of apoptosis in human K562/ADR cells assessed as ratio of cleaved caspase-9 to beta-actin level at 0.1 uM measured after 48 hrs by Western blot analysis (reference value: 0.05); assay type: functional
[19] = tested on: K562/Adr; experiment: Induction of apoptosis in human K562/ADR cells assessed as ratio of cleaved caspase-3 to beta-actin level at 0.1 uM pretreated with MAPK inhibitor U0126 for 1 hr followed by compound addition measured after 48 hrs by Western blot analysis (reference value: 0.06); assay type: functional
[20] = tested on: K562/Adr; experiment: Induction of apoptosis in human K562/ADR cells assessed as ratio of cleaved caspase-8 to beta-actin level at 0.1 uM pretreated with MAPK inhibitor U0126 for 1 hr followed by compound addition measured after 48 hrs by Western blot analysis (reference value: 0.07); assay type: functional
[21] = tested on: K562/Adr; experiment: Induction of apoptosis in human K562/ADR cells assessed as ratio of cleaved caspase-3 to beta-actin level at 0.1 uM pretreated with MAPK inhibitor SP600125 for 1 hr followed by compound addition measured after 48 hrs by Western blot analysis (reference value: 0.06); assay type: functional
[22] = tested on: K562/Adr; experiment: Induction of apoptosis in human K562/ADR cells assessed as ratio of cleaved caspase-3 to beta-actin level at 0.1 uM pretreated with MAPK inhibitor SB203580 for 1 hr followed by compound addition measured after 48 hrs by Western blot analysis (reference value: 0.06); assay type: functional
[23] = Downregulation of P-gp expression in human K562/ADR cells assessed as ratio of P-gp to beta-actin level at 0.1 uM measured after 48 hrs by Western blot analysis (reference value: 0.63); assay type: functional, cell-based
[24] = Downregulation of P-gp expression in human K562/ADR cells assessed as ratio of P-gp to beta-actin level at 0.1 uM pretreated with MAPK inhibitor SP600125 for 1 hr followed by compound addition measured after 48 hrs by Western blot analysis (reference value: 0.63); assay type: functional, cell-based
[25] = Downregulation of P-gp expression in human K562/ADR cells assessed as ratio of P-gp to beta-actin level at 0.1 uM pretreated with MAPK inhibitor SB203580 for 1 hr followed by compound addition measured after 48 hrs by Western blot analysis (reference value: 0.63); assay type: functional, cell-based
[26] = Potency index, ratio of doxorubicin IC50 to compound IC50 for antiproliferative activity against human K562/ADR cells; assay type: functional

In the case of `COc1cc([C@@H]2c3cc4c(cc3[C@H](OC(=O)c3ccco3)[C@H]3COC(=O)[C@H]23)OCO4)cc(OC)c1OC`, the IC50 [1] is reported as 32 nM, the “fold change (FC)” value [2] is reported as 0.49 and the Ratio [3] is reported as 0.05. The Ratio [4] was 0.15, the Ratio [5] was 0.51 and the Ratio [6] was 0.2. For the same compound, the Ratio [7] was 0.26, the Ratio [8] was 0.19 and the Ratio [9] was 0.26. It also gave an Activity [10] of 7.92%, an Activity [11] of 2.14% and a viability at 0.1 µM [12] of 56.5%. For the same compound, the Activity [13] was 3.32%, the viability at 0.1 µM [14] was 58.5% and the viability at 0.1 µM [15] was 59.4%. The Activity [16] was 6.84%, the Ratio [17] was 0.68 and the Ratio [18] was 0.69. The Ratio [19] was 0.49, the Ratio [20] was 0.42 and the Ratio [21] was 0.51. It also gave a Ratio [22] of 0.52, a Ratio [23] of 0.07 and a Ratio [24] of 0.34. The Ratio [25] was 0.34 and the “Ratio IC50” value [26] was 586.843.
